One experiment relates to guinea pigs. Kind of experiment: Impact on the itch-causing effect of histamine phosphate (itch-causing threshold). It counts as in vivo. To be noted: for itch-causing threshold: oral, 3 consecutive days; for alleviation of the itch-causing effect of histamine phosphate (in words): administration alone.
Experiment [1] deals with patients with diagnosed neurodermatitis. Description: Clinical study of cannabinoid compound for neurodermatitis. It counts as in vivo, human. The following applies: 2 weeks; for Cured (number of patients, efficacy index >90%) / effective (number of patients, efficacy index 20-60%) / excellently effective (number of patients, efficacy index 61-89%) / ineffective (number of patients, efficacy index <20%): orally once per day at bedtime, n=10; for clinical efficacy in neurodermatitis (in words): patients, orally once per day.

A further experiment concerns the target T1, 5-HT1A receptors (Mus musculus, UniProt Q64264).
T1 construct: host or cells: mice (in vivo)
T1 sequence (Q64264 1-421): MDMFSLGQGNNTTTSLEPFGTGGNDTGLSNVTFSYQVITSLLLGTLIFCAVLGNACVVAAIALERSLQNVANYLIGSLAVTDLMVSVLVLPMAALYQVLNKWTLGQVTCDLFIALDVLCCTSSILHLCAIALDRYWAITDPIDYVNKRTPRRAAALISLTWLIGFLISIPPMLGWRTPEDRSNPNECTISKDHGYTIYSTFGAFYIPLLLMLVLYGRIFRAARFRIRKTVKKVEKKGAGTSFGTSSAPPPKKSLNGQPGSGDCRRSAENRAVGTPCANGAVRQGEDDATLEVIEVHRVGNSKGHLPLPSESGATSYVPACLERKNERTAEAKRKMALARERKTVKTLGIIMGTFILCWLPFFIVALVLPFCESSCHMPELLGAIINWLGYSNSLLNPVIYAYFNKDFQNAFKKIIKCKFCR
The following applies: possibly through activation of 5-HT1A receptors; cited from earlier work.

The mark [2] stands for this setting: 100 mg of tetrahydrocannabinol (Embodiment 3).
Setting [3] is: 25 mg/d of doxepin hydrochloride.
Setting [4] is: 200 mg of cannabidiol (Embodiment 1).

These results are taken from patent publication US20210393574A1, “USE OF C[…] IN NEURO[…]” (HANYI BIO-TECHNOLOGY (BEIJING) CO., LTD., priority 2018, published 2021).

Structures are written as SMILES. Where a name gives a salt, the structure may show the parent alone.

As for `CCCc1cc(O)c2c(c1)OC(C)(C)[C@@H]1CCC(C)=C[C@@H]21` [tetrahydrocannabinovarin], the values for the itch-causing threshold in the experiment on guinea pigs (5 mg/day), with guinea pigs (10 mg/day) and with guinea pigs (20 mg/day) were 50.45 ± 45.67 µL, 56.43 ± 34.18 µL and 55.23 ± 40.92 µL, respectively.
On to `CCCCCc1cc(O)c2c(c1)OC(C)(C)[C@@H]1CCC(C)=C[C@@H]21` [tetrahydrocannabinol], for which, in experiment [1] (setting [2]), the “Cured (number of patients, efficacy index >90%)” value turned out to be 1; the “effective (number of patients, efficacy index 20-60%)” value amounted to 6; the “excellently effective (number of patients, efficacy index 61-89%)” value was determined as 2; the “ineffective (number of patients, efficacy index <20%)” value was 1. Moreover, the “clinical efficacy in neurodermatitis (in words)” value in experiment [1] was “have clinical efficacy in neurodermatitis”. Moreover, the “alleviation of the itch-causing effect of histamine phosphate (in words)” value with guinea pigs was “significantly alleviates”. Moreover, in the experiment on guinea pigs (40 mg/day), the itch-causing threshold came to 90.65 ± 32.08 µL. In the experiment with guinea pigs (80 mg/day), this compound showed an itch-causing threshold of 92.10 ± 50.78 µL. The compound further gave an itch-causing threshold in the experiment on guinea pigs (100 mg/day) of 94.98 ± 48.96 µL.
Regarding `C=C(C)[C@@H]1CCC(C)=C[C@H]1c1c(O)cc(CCC)cc1O` [cannabidivarin], the results for the itch-causing threshold with guinea pigs (40 mg/day), with guinea pigs (80 mg/day) and with guinea pigs (100 mg/day) were 56.23 ± 45.87 µL, 59.55 ± 39.84 µL and 56.89 ± 34.25 µL, respectively.
For `CN(C)CCC(c1ccc(Cl)cc1)c1ccccn1` (stereo not drawn) [chlorphenamine maleate, reference compound], the itch-causing threshold in the experiment with guinea pigs (10 mg/day) stood at 127.03 ± 54.05 µL.
For the compound `CN(C)CCC=C1c2ccccc2COc2ccccc21` [doxepin hydrochloride, reference compound], in experiment [1] (setting [3]), the “Cured (number of patients, efficacy index >90%)” value was found to be 0; the “effective (number of patients, efficacy index 20-60%)” value is 3; the “excellently effective (number of patients, efficacy index 61-89%)” value was 6; the “ineffective (number of patients, efficacy index <20%)” value stood at 1.
For the compound `C=C(C)[C@@H]1CCC(C)=C[C@H]1c1c(O)cc(CCCCC)cc1O` [cannabidiol], in experiment [1] (setting [4]), the “Cured (number of patients, efficacy index >90%)” value worked out at 1; the “effective (number of patients, efficacy index 20-60%)” value is 6; the “excellently effective (number of patients, efficacy index 61-89%)” value worked out at 3; the “ineffective (number of patients, efficacy index <20%)” value is 0. Besides, in experiment [1], the “clinical efficacy in neurodermatitis (in words)” value was “have clinical efficacy in neurodermatitis”. For the same compound, on 5-HT1A receptors, the “antidepressant activity in mice (in words)” value is “has antidepressant activity in mice”. Further, the “alleviation of the itch-causing effect of histamine phosphate (in words)” value in the experiment on guinea pigs was “significantly alleviates”. In addition, the itch-causing threshold in the experiment with guinea pigs (50 mg/day) is 90.24 ± 45.98 µL. In addition, the itch-causing threshold with guinea pigs (200 mg/day) is 96.55 ± 42.34 µL. The compound also had an itch-causing threshold in the experiment on guinea pigs (400 mg/day) of 117.67 ± 44.67 µL.
